What was measured:
[1] = Stability of photoswitch in presence of TCEP during derivatization reaction; type: physicochemical; conditions: 1 mM TCEP, pH 8.5, 35° C., 16 h
Description: Freshly degassed and reduced SpA #2 (650 μM, 1.3 μmol, 10 mg, 1 eq) in a total volume of 2 ml was diluted with the same degassed buffer (100 mM sodium borate, 150 mM NaCl, 1 mM TCEP, pH 8.5) to a final protein concentration of 50 μM. This solution was stirred under nitrogen atmosphere while 2.2 mg PS2 (2.6 μmol, 2 eq) dissolved in 0.26 ml DMF, which has been illuminated with red light (635 nm) for 5 min, was added in one portion. The reaction was illuminated with red light and stirred for 16 h at 35° C. […] The derivatization reaction results in a […] amount of intramolecular cross-linked species. Further purification steps by anion exchange chromatography and SEC were performed to remove small amounts of cross-linked species and higher oligomers.

[2] = Thermal cis to trans relaxation of PS4, HPLC; type: physicochemical; conditions: 25° C., kept in the dark after yellow light (593 nm) for 2 min
[3] = system: immunoglobulin G (IgG) mixture (Cutaquig); assay: Light-controlled affinity purification of IgG from polyclonal antibody mixture Cutaquig; type: binding; conditions: sample application and washing under red light, elution under blue light; immobilized on NHS-Agarose
Description: For the functional assessment of the light-switchable affinity matrices, these were encased within a transparent acrylic glass housing, featuring a thickness of 2 mm, to achieve a settled bed volume (SBV) of 250 μl. A LED array equipped with lenses capable of alternating between peak wavelengths of 635 nm (red) and 465 nm (blue) was positioned adjacent to the housing. This configuration ensured thorough and efficient illumination of the entire resin material contained within. The performance of the light-switchable affinity matrix was tested using the polyclonal antibody mixture Cutaquig® (Octapharma) as a substrate.
Initially, the column was equilibrated with 3 mL of running buffer (50 mM TrisHCl, pH 7.6, 150 mM NaCl) using an FPLC system (AKTA Pure 25, Cytiva Life Science). The affinity matrix was then loaded with sample to achieve a 60% breakthrough. Unbound proteins and impurities were removed by washing the column with 7.5 mL of the same running buffer. Both, the sample application and washing steps were performed under red visible light illumination at 635 nm to ensure binding conditions. Following this, the elution of bound immunoglobulin G (IgG) was initiated by switching the illumination to blue visible light at 465 nm, which induces the release of the bound IgG. The resin was regenerated by again illuminating with red visible light at 635 nm, preparing it for subsequent use. […]

Molecule: COc1cc(-c2ccc(NC(=O)CCl)c(C(=O)NCC(=O)O)c2)cc(OC)c1/N=N/c1c(OC)cc(-c2ccc(NC(=O)CCl)c(C(=O)NCC(=O)O)c2)cc1OC [PS2, 4′-(2-(4-(2-chloroacetamido)-3′,5′-dimethoxybiphenyl-3-ylcarboxyamido)acetic acid)-4′-(2-(4-(2-chloroacetamido)-3′,5′-dimethoxybiphenyl-3-ylcarboxyamido)acetic acid)diazene]
- stability in the presence of TCEP [1]: stable

Molecule: O=C(O)CNC(=O)c1cc(-c2cc(F)c(/N=N/c3c(F)cc(-c4ccc(NC(=O)CCl)c(C(=O)NCC(=O)O)c4)cc3F)c(F)c2)ccc1NC(=O)CCl [PS4, 4′-(2-(4-(2-chloroacetamido)-3′,5′-difluorobiphenyl-3-ylcarboxyamido)acetic acid)-4′-(2-(4-(2-chloroacetamido)-3′,5′-difluorobiphenyl-3-ylcarboxyamido)acetic acid)diazene]
- t1/2 (cis→trans) [2]: ≥ 1 days

B1: Ps2-SpG #1: Protein G variant SpG #1 (SEQ ID NO. 18) modified with photoswitch PS2 (conjugate)
chain: MATKASKGGGGTTYRLILNGVTLSGETTTEACDAATAERVFRQYANDYGVDGEWTYDCATRTFTVTEGEDEDEDED
modifications: photoswitch PS2
- binding and light-controlled elution of IgG (chromatogram) [3]: elution of specifically bound IgG molecules is initiated by blue light illumination

B2: Ps2-Ppl #1: Protein L variant PpL #1 (SEQ ID NO. 19) modified with photoswitch PS2 (conjugate)
chain: MATKASKGGGGASEEVTIRVNLIFADGSTQCAEFRGTFEEATAEAYAYADLLARENGEYTACLEDGGNTINIRFAGEDEDEDED
modifications: photoswitch PS2
- binding and light-controlled elution of IgG (chromatogram) [3]: elution of specifically bound IgG molecules is initiated by blue light illumination

From patent publication US20260265179A1, “PHOTOSWITCHABLE COMPOUNDS AND AFFINITY LIGANDS, AND THEIR USE FOR THE OPTICAL CONTROL OF AFFINITY MATRICES” (AFC Innovations GmbH, priority 2023, published 2026)
